How the values were obtained:
[1] = test system: lung fibroblasts; assay: Fibroblast proliferation (counting DAPI nuclei); format: cell-based, human
Description: IPF fibroblast and Normal lung fibroblast co-culture proliferation. Cell are prelabelled with fluorescent dyes (red and green) and then cocultured at a ratio of about 1:1 in 96 well plates. Cell counts are determined every 24 hours and plotted as a ratio of IPF/HLF cells. In the control wells the IPF cells outgrow and take over the well. N=2.
Proliferation of lung fibroblasts (IMR-90 cells) measured for 4 days in the presence of GPCR agonists ET-1 (100 nM) and LPA (10 μM)+/−10 μM DHX. Cells were fixed and counted with DAPI at the end of each day. N=3 technical triplicates.
Adult lung fibroblasts plated into 96-well plates, stimulated with 2 ng/mL TGFβ and compounds at the indicated concentration. Proliferation determined by fixing and counting DAPI nuclei using a Cytation 5. N=2.
Fibroblasts were stimulated with 2 ng/mL TGFβ and treated with compound 1 (MS-9) at the indicated concentration (0.1 μM, 1 μM, and 10 μM). Proliferation determined by fixing and counting DAPI nuclei using a Cytation.

[2] = test system: bile duct ligation (BDL)-mediated fibrosis; assay: Bile duct ligation model of liver fibrosis; format: in vivo, mouse; conditions: BDL mice, DHX 5 mg/kg i.p. daily Day 7 for 14 days
Description: Bile Duct Ligation: BDL was performed as previously described. Briefly, 8-10 weak old female C57BL/6N underwent either BDL or sham surgery. Mice were anesthetized on Day 0 following IACUC protocol, and the bile duct was ligated using sterile 3/0 silk ligatures. Sham surgery was performed by passing a silk ligature under the bile duct. Starting on Day 7, DHX (5 mg/kg) or vehicle control was administered everyday intraperitoneally (i.p.) for 14 days. Following the final DHX treatment, mice were sacrificed and the livers harvested for analysis of fibrosis.
Histological Scoring: Five μm thick sections were cut from Paraffin embedded lung tissues, and the sections were stained either with hematoxylin and eosin (H&E) or with Masson's Trichrome stain kit (Abcam). […] The severity of interstitial and peribronchiolar lung immature and mature fibrosis was estimated on a numerical scale according to Ashcroft et al. For scoring purposes, all H&E stained slides were systematically scanned at 100× magnification and successive 100× fields were scored. […] The predominant score for each field was recorded. The mean of all scores was calculated for each case. Liver trichrome stained sections were computationally measured using Image J software. […]
Hydroxyproline: Hydroxyproline content was measured using a hydroxyproline assay kit (Biovision) according to the manufacture's instruction with slight modification. […]

Oc1cc2c(cc1O)[C@H]1c3ccccc3CN[C@@H]1CC2 (racemic) [Dihydrexidine]
proliferation of lung fibroblasts ([1]; 4 days, ET-1, LPA, TGFβ or CTGF +/− 10 μM DHX): blocks proliferation | IPF fibroblast and normal lung fibroblast co-culture proliferation ([1]; co-culture about 1:1, ratio of IPF/HLF cells every 24 hours): selectively slows proliferation in IPF fibroblasts | collagen deposition (hydroxyproline) [2]: trend toward reduced collagen deposition | histological fibrosis (trichrome) [2]: significantly improved histological fibrosis

— patent publication US12264163B2, “Compounds and methods for treating fibrotic pathologies” (Mayo Foundation for Medical Education and Research, priority 2019, dated 2025)
